Data published in patent publication US10233189B2 (priority 2015, dated 2019).

Experiment: Evaluation of stability in hepatic microsome
Type: in vitro ADME
Conditions: mouse hepatic microsome 0.25 mg/mL, 1 μM compound, 37° C., 30 minutes, NADPH-generating system

In the case of `Cc1ccc(-c2nn(C(C)(C)C)c3ncnc(N)c23)cc1` [Compound 4 of Comparative Examples, 1-(tert-butyl)-3-(p-tolyl)pyrazolo[3,4-d]pyrimidin-4-amine], the “percentage of the remaining tested compounds (remaining %)” value is reported as 0%.
